We go through three compounds from patent US9034904B2, “Forms of dexlansoprazole and processes for the preparation thereof” (APOTEX PHARMACHEM INC., priority 2009, dated 2015).

A short description of this data set: Chemical stability on storage (chemical purity by HPLC). Format: physicochemical. Conditions: for reduction in chemical purity by HPLC (area %): following 1 week of storage at 40° C. and 75% relative humidity (40° C./75% RH).

As for `Cc1c(OCC(F)(F)F)ccnc1C[S@@+]([O-])c1nc2ccccc2[nH]1`, the “chemical stability compared to other known forms of dexlansoprazole such as the amorphous form” value (qualitative statement, storage conditions not given) is on record as “increased chemical stability”.

As for `CC(O)CO.Cc1c(OCC(F)(F)F)ccnc1C[S@@+]([O-])c1nc2ccccc2[nH]1.O`, the “reduction in chemical purity by HPLC (area %)” value was “essentially unchanged”.

As to `Cc1c(OCC(F)(F)F)ccnc1C[S@@+]([O-])c1nc2ccccc2[nH]1` [amorphous form, (R)-2-[[[3-methyl-4-(2,2,2-trifluoroethoxy)-2-pyridinyl]methyl]sulfinyl]-1H-benzimidazole, reference compound], the “reduction in chemical purity by HPLC (area %)” value was found to be 8.5 area %.
